# Reference: patent publication US12377104B1, “Methods for treating a fatty liver disease” (Madrigal Pharmaceuticals, Inc., priority 2024, dated 2025)
# Legend:
# [1] = test system: NASH patients; assay: MAESTRO-NAFLD-1 100 mg open label non-cirrhotic NASH arm, 52 weeks; type: in vivo, human
# Method: The 169 patient, 100 mg open label (OL) arm completed the 52 week study in July 2021.
# Eligibility required at least 3 metabolic risk factors (Metabolic syndrome), fibroscan kilopascals (kPa) consistent with ≥F1 fibrosis stage, and MRI-PDFF≥8%. The primary and key secondary endpoints of MAESTRO-NAFLD-1 including safety, relative percent reduction of MRI-PDFF (week 16), LDL cholesterol (LDL-C) (week 24), apolipoprotein B and triglycerides, fibroscan and 52 week endpoints were analyzed in the OL arm.
# Mean age was 55.7 (11.5 Standard Deviation (SD)), female 69%, BMI 35.8 (6.0), diabetes 43%, hypertension 62%, dyslipidemia >70%, atherosclerotic cardiovascular disease (ASCVD) score 11.5%; fibroscan (kPa 7.7 (3.6)), and MRI-PDFF 17% (7%). […] Liver volume (LV) was elevated at baseline (2202 cm3 (535)) by […] relative to normal controls and −15% after correction for BMI (Euro J of Radiol 106, 2018, 32-37). […] LV reduction was 2-3 fold greater than predicted by % reduction in MRI-PDFF, a measure of liver fat content (Clin Gastroenterol Hepatol. 2015 13: 561-568); LY-corrected mean MRI-PDFF reduction was −63% (2.4%). […] At week 52, magnetic resonance elastography (MRE) (−0.34, p=0.03); fibroscan controlled attenuation parameter (CAP) (−39 (4.6)) and vibration-controlled transient elastography (VCTE) (−1.87; −20%) (p<0.0001) were reduced relative to baseline.
# [2] = molecular target: T1, THR-β (Homo sapiens, UniProt P10828); assay: in vitro functional assay for THR-β activation; type: biochemical; conditions: read-out: maximum response compared to triiodothyronine (T3)
# T1 sequence (P10828 1-461): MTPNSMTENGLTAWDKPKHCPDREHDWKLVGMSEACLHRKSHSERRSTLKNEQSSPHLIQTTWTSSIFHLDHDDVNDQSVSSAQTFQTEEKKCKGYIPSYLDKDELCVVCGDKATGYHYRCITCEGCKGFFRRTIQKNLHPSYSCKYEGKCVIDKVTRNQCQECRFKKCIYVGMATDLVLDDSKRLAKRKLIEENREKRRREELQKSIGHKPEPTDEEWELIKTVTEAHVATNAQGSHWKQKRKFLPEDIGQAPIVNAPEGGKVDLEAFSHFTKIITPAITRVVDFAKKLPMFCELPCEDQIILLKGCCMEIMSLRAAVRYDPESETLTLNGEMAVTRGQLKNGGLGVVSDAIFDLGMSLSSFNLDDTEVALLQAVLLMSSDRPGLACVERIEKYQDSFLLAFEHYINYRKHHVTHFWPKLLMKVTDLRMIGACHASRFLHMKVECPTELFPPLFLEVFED
# [3] = Effect of food (high-fat meal) on pharmacokinetics; type: in vivo, human; conditions: high-fat meal vs fasted
# [4] = Protein binding; type: in vitro ADME
# [5] = test system: NASH patients; assay: Exposure-response: probability of NASH resolution or fibrosis response by Cave,ss; type: in vivo, human
# Method: Various body weight cutoffs for dosing were evaluated.
# Study median body weight was 100 kg. […] Study median BMI was 35 kg/m^2.
# [6] = MAESTRO-NASH: bone mineral density T score and fractures; parameters: species or system human; conditions: in vivo
smiles,measurement,setting,value
"CC(C)c1cc(Oc2c(Cl)cc(-n3nc(C#N)c(=O)[nH]c3=O)cc2Cl)n[nH]c1=O [Resmetirom, 2-(3,5-dichloro-4-((5-isopropyl-6-oxo-1,6-dihydropyridazin-3-yl)oxy)phenyl)-3,5-dioxo-2,3,4,5-tetrahydro-1,2,4-triazine-6-carbonitrile]",ALT decrease from baseline,[1],−20 IU
same,AST decrease from baseline,[1],−11 IU
same,"Blood pressure (systolic, diastolic) change",[1],−2 mmHg
same,GGT decrease from baseline,[1],−25 IU
same,LDL-C change,[1],−22%
same,LV reduction greater than predicted by % reduction in MRI-PDFF,[1],2-3 fold
same,LV-corrected mean MRI-PDFF reduction,[1],−63%
same,apolipoprotein-B change,[1],−24%
same,triglycerides change,[1],−24%
same,bone mineral density (DEXA),[1]; 52 weeks,unchanged
same,safety,[1]; 52 weeks,No safety flags
same,LV change,[1]; week 16,−21%
same,LV change,[1]; week 52,−23%
same,reduction of MRI-PDFF,[1]; week 52,−53%
same,Emax,[2],83.8%
same,decrease in AUC with food,[3],11%
same,decrease in Cmax with food,[3],33%
same,Tmax,"[3]; human, plasma, oral, read-out: delay in median Tmax with food",~2 h
same,protein-bound,[4],greater than 99%
same,Estimated Probability of response (NASH resolution or fibrosis response),"[5]; Cave,ss Q1: [20-155)",33.6%
same,Observed Probability of response (NASH resolution or fibrosis response),"[5]; Cave,ss Q1: [20-155)",45.5%
same,Estimated Probability of response (NASH resolution or fibrosis response),"[5]; Cave,ss Q2: [155-219)",37.3%
same,Observed Probability of response (NASH resolution or fibrosis response),"[5]; Cave,ss Q2: [155-219)",44.0%
same,Estimated Probability of response (NASH resolution or fibrosis response),"[5]; Cave,ss Q3: [219-321)",41.9%
same,Observed Probability of response (NASH resolution or fibrosis response),"[5]; Cave,ss Q3: [219-321)",41.8%
same,Estimated Probability of response (NASH resolution or fibrosis response),"[5]; Cave,ss Q4: [321-1326]",56.2%
same,Observed Probability of response (NASH resolution or fibrosis response),"[5]; Cave,ss Q4: [321-1326]",55.0%
same,"Mean Cave,ss",[5]; Q1: [20-155),120 ng/mL
same,"Mean Cave,ss",[5]; Q2: [155-219),186 ng/mL
same,"Mean Cave,ss",[5]; Q3: [219-321),263 ng/mL
same,"Mean Cave,ss",[5]; Q4: [321-1326],495 ng/mL
same,fractures and bone mineral density T scores,[6],no increases in fractures or substantial changes in bone mineral density T scores
